Patent publication US20250368633A1, “AZEPINE FUSED RING COMPOUND AS RIPK1 INHIBITOR AND USE THEREOF” (ARTIVILA BIOPHARMA, priority 2022, published 2025)

Assays:
RIPK1 kinase = molecular target: T1, RIPK1 kinase (Homo sapiens, UniProt Q13546); test: In vitro RIPK1 kinase activity assay (ADP-Glo), inhibition by compounds at 1 μM; type: biochemical; conditions: compound 1 μM; ATP 10 μM; MBP substrate 100 μg/mL; read-out: RIPK1 kinase activity inhibition rate range
T1 construct: purchased Promega VA7593
T1 sequence (Q13546 1-671): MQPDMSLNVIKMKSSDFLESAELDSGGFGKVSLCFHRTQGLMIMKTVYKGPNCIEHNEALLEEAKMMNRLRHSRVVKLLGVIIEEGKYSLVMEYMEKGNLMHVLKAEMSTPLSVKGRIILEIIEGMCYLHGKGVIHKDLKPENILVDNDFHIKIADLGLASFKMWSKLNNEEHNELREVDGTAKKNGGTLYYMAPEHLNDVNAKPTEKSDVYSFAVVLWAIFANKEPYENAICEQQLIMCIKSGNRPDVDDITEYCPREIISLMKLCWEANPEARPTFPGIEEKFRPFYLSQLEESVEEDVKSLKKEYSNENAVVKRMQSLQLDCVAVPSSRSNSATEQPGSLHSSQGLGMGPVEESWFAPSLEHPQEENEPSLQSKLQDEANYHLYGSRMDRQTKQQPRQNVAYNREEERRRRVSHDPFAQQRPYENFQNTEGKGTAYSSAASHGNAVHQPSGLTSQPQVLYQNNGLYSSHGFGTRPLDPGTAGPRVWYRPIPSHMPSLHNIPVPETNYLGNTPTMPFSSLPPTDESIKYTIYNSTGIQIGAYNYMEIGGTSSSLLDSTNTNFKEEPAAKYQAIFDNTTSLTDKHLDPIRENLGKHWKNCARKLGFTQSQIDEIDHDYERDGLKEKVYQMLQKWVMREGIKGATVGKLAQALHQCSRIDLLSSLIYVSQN
Procedure, shortened: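 Read by ADP-Glo chemiluminescence as percent inhibition: RIPK1 kinase, 15-min room-temperature compound preincubation, then 1-h reaction with MBP (100 μg/mL final) and ATP (10 μM final). Enzyme level was set by titration.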

U937 cells = test: Inhibition rate of compound (1 μM) on necroptosis of U937 cells (TSZ-induced, CellTiter-Glo); type: cell-based; conditions: TSZ (hTNF-α, SM-164, Z-VAD-FMK) 20 hours
Procedure, shortened: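 Percent inhibition comes from ATP luminescence (CellTiter-Glo), referenced to wells without TSZ and wells with TSZ alone. The compound was added to U937 cells 15 min ahead of a TNF-α/SM-164/Z-VAD-FMK mix, followed by 20 h culture at 37° C, 5% CO2.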

Structure (SMILES) | inhibition at 1 µM (RIPK1 kinase) [%] | Inhibition rate range of compounds (1 μM) on U937 cell necroptosis (U937 cells)
CN1C(=O)[C@@H](NC(=O)C(=O)NCCc2cccc(F)c2)COc2ccc(C#CCN3CCNC(=O)C3)cc21 [Example 123, (S)—N^1-(3-fluorophenethyl)-N^2-(5-methyl-4-oxo-7-(3-(3-oxopiperazin-1-yl)prop-1-yn-1-yl)-2,3,4,5-tetrahydrobenzo[b][1,4]oxazepin-3-yl)oxalamide] | 50 to 74 | B (B: 50-89%)
C[C@@H](NC(=O)C(=O)N[C@H]1COc2ccc(C#CCN3CC[C@@H](O)C3)cc2N(C)C1=O)c1ccccc1 [Example 128, N^1-((S)-7-(3-((R)-3-hydroxypyrrolidin-1-yl)prop-1-yn-1-yl)-5-methyl-4-oxo-2,3,4,5-tetrahydrobenzo[b][1,4]oxazepin-3-yl)-N^2-((R)-1-phenylethyl)oxalamide] | ≥ 75 | B (B: 50-89%)
C[C@@H](NC(=O)C(=O)N[C@H]1COc2ccc(C#CCN3CC[C@H](O)C3)cc2N(C)C1=O)c1ccccc1 [Example 130, N^1-((S)-7-(3-((S)-3-hydroxypyrrolidin-1-yl)prop-1-yn-1-yl)-5-methyl-4-oxo-2,3,4,5-tetrahydrobenzo[b][1,4]oxazepin-3-yl)-N^2-((R)-1-phenylethyl)oxalamide] | ≥ 75 | A (A: ≥90%)
C[C@@H](NC(=O)C(=O)N[C@H]1COc2ccc(C#CC3(O)COC3)cc2N(C)C1=O)c1ccccc1 [Example 132, N^1-((S)-7-((3-hydroxyoxetan-3-yl)ethynyl)-5-methyl-4-oxo-2,3,4,5-tetrahydrobenzo[b][1,4]oxazepin-3-yl)-N^2-((R)-1-phenylethyl)oxalamide] | 50 to 74 | A (A: ≥90%)
C[C@@H](NC(=O)C(=O)N[C@H]1COc2ccc(C#CC3CCN(CC#N)CC3)cc2N(C)C1=O)c1ccccc1 [Example 137, N^1-((S)-7-((1-(cyanomethyl)piperidin-4-yl)ethynyl)-5-methyl-4-oxo-2,3,4,5-tetrahydrobenzo[b][1, 4]oxazepin-3-yl)-N^2-((R)-1-phenylethyl)oxalamide] | ≥ 75 | A (A: ≥90%)
C[C@@H](NC(=O)C(=O)N[C@H]1COc2ccc(C#CCN3CCC(O)CC3)cc2N(C)C1=O)c1ccccc1 [Example 138, N^1-((S)-7-(3-(4-hydroxypiperidin-1-yl)prop-1-yn-1-yl)-5-methyl-4-oxo-2,3,4,5-tetrahydrobenzo[b][1,4]oxazepin-3-yl)-N^2-((R)-1-phenylethyl)oxalamide] | ≥ 75 | A (A: ≥90%)
C[C@@H](NC(=O)C(=O)N[C@H]1COc2ccc(C#CCN3CCC(=O)CC3)cc2N(C)C1=O)c1ccccc1 [Example 139, N^1-((S)-5-methyl-4-oxo-7-(3-(4-oxopiperidin-1-yl)prop-1-yn-1-yl)-2,3,4,5-tetrahydrobenzo[b][1, 4]oxazepin-3-yl)-N^2-((R)-1-phenylethyl)oxalamide] | ≥ 75 | B (B: 50-89%)
C[C@@H](NC(=O)C(=O)N[C@H]1COc2ccc(C#CCN3CCOCC3)cc2N(C)C1=O)c1ccccc1 [Example 140, N^1-((S)-5-methyl-7-(3-morpholinoprop-1-yn-1-yl)-4-oxo-2,3,4,5-tetrahydrobenzo[b][1,4]oxazepin-3-yl)-N^2-((R)-1-phenylethyl)oxalamide] | ≥ 75 | A (A: ≥90%)
C[C@@H](NC(=O)C(=O)N[C@H]1COc2ccc(C#CCN3C(=O)CCC3=O)cc2N(C)C1=O)c1ccccc1 [Example 144, N^1-((S)-7-(3-(2,5-dioxopyrrolidin-1-yl)prop-1-yn-1-yl)-5-methyl-4-oxo-2,3,4,5-tetrahydrobenzo[b][1,4]oxazepin-3-yl)-N^2-((R)-1-phenylethyl)oxalamide] | ≥ 75 | A (A: ≥90%)
C[C@@H](NC(=O)C(=O)N[C@H]1COc2ccc(C#CCN3CCNC(=O)C3)cc2N(C)C1=O)c1ccccc1 [Example 145, N^1-((S)-5-methyl-4-oxo-7-(3-(3-oxopiperazin-1-yl)prop-1-yn-1-yl)-2,3,4,5-tetrahydrobenzo[b][1, 4]oxazepin-3-yl)-N^2-((R)-1-phenylethyl)oxalamide] | ≥ 75 | A (A: ≥90%)
C[C@@H](NC(=O)C(=O)N[C@H]1COc2ccc(C#CCN(C)C)cc2N(C)C1=O)c1ccccc1 [Example 146, N^1-((S)-7-(3-(dimethylamino)prop-1-yn-1-yl)-5-methyl-4-oxo-2,3,4,5-tetrahydrobenzo[b][1,4]oxazepin-3-yl)-N^2-((R)-1-phenylethyl)oxalamide] | 50 to 74 | A (A: ≥90%)
C[C@@H](NC(=O)C(=O)N[C@H]1COc2ccc(C#CC3CN(CC#N)C3)cc2N(C)C1=O)c1ccccc1 [Example 148, N^1-((S)-7-((1-(cyanomethyl)azetidin-3-yl)ethynyl)-5-methyl-4-oxo-2,3,4,5-tetrahydrobenzo[b][1, 4]oxazepin-3-yl)-N^2-((R)-1-phenylethyl)oxalamide] | ≥ 75 | A (A: ≥90%)
C[C@@H](CNC(=O)C(=O)N[C@H]1COc2ccc(C#CCCO)cc2N(C)C1=O)c1ccccc1 [Example 155, N^1-((S)-7-(4-hydroxybut-1-yn-1-yl)-5-methyl-4-oxo-2,3,4,5-tetrahydrobenzo[b][1,4]oxazepin-3-yl)-N^2-((R)-2-phenylpropyl)oxalamide] | ≥ 75 | A (A: ≥90%)
C[C@H](CNC(=O)C(=O)N[C@H]1COc2ccc(C#CCCO)cc2N(C)C1=O)c1ccccc1 [Example 156, N^1-((S)-7-(4-hydroxybut-1-yn-1-yl)-5-methyl-4-oxo-2,3,4,5-tetrahydrobenzo[b][1,4]oxazepin-3-yl)-N^2-((S)-2-phenylpropyl)oxalamide] | 50 to 74 | A (A: ≥90%)
C[C@@H](CNC(=O)C(=O)N[C@H]1COc2ccc(C#CC3(O)COC3)cc2N(C)C1=O)c1ccccc1 [Example 158, N^1-((S)-7-((3-hydroxyoxetan-3-yl)ethynyl)-5-methyl-4-oxo-2,3,4,5-tetrahydrobenzo[b][1,4]oxazepin-3-yl)-N^2-((R)-2-phenylpropyl)oxalamide] | ≥ 75 | A (A: ≥90%)
C[C@@H](CNC(=O)C(=O)N[C@H]1COc2ccc(C#CCN3CCOCC3)cc2N(C)C1=O)c1ccccc1 [Example 159, N^1-((S)-5-methyl-7-(3-morpholinoprop-1-yn-1-yl)-4-oxo-2,3,4,5-tetrahydrobenzo[b][1,4]oxazepin-3-yl)-N^2-((R)-2-phenylpropyl)oxalamide] | ≥ 75 | A (A: ≥90%)
CN1C(=O)C(NC(=O)C(=O)NCCc2cccc(F)c2)CCc2ccc(C#CCCO)cc21 (stereo not shown) [Example 167, N^1-(3-fluorophenethyl)-N^2-(8-(4-hydroxybut-1-yn-1-yl)-1-methyl-2-oxo-2,3,4,5-tetrahydro-1H-benzo[b]azepin-3-yl)oxalamide] | ≥ 75 | A (A: ≥90%)
